SMILES strings stand for the structures.

For series [1], the system named is Alopecurus myosuroides (ALOMY). The series is described as follows: Post-emergence herbicidal glasshouse test. Type of series: in vivo. The following applies: post-emergence (sprayed after 8 days cultivation), evaluated after 13 days, 100=total damage to plant, 0=no damage to plant; for pest or weed control at 1000 g/ha: Alopecurus myosuroides, 312 h, read-out: POST Application ALOMY, damage to plant; for POST Application ALOMY, damage to plant: 1000 g/ha. The gist of the method: (§1)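 Glasshouse pots at 24/16 °C day/night, 14 h photoperiod and 65% humidity were treated once at 1000 g/ha, using 0.5% Tween 20 in acetone/water 50:50, before (1 d) or after (8 d) emergence. Phytotoxicity was scored 0–100 at 13 days.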

In series [2] the test system is Solanum nigrum (SOLNI). The series is described as follows: Post-emergence herbicidal glasshouse test. The settings on record: post-emergence (sprayed after 8 days cultivation), evaluated after 13 days, 100=total damage to plant, 0=no damage to plant; for pest or weed control at 1000 g/ha: Solanum nigrum, 312 h, read-out: POST Application SOLNI, damage to plant; for POST Application SOLNI, damage to plant: 1000 g/ha. Type of series: in vivo. The gist of the method:
as §1

For series [3], the system named is Setaria faberi (SETFA). The series is described as follows: Post-emergence herbicidal glasshouse test. It counts as in vivo. The settings on record: post-emergence (sprayed after 8 days cultivation), evaluated after 13 days, 100=total damage to plant, 0=no damage to plant; for pest or weed control at 1000 g/ha: Setaria faberi, 312 h, read-out: POST Application SETFA, damage to plant; for POST Application SETFA, damage to plant: 1000 g/ha. The gist of the method: as §1

The subject of series [4] is Echinochloa crus-galli (ECHCG). Kind of series: Post-emergence herbicidal glasshouse test. Type of series: in vivo. The settings on record: post-emergence (sprayed after 8 days cultivation), evaluated after 13 days, 100=total damage to plant, 0=no damage to plant; for pest or weed control at 1000 g/ha: Echinochloa crus-galli, 312 h, read-out: POST Application ECHCG, damage to plant; for POST Application ECHCG, damage to plant: 1000 g/ha. The gist of the method:
(§2)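 Damage was rated visually 13 days after treatment on a 0–100 scale, 100 meaning total damage. Pot-grown plants received a 1000 g/ha spray in acetone/water (50:50) containing 0.5% Tween 20, either one day after sowing or after eight days of growth.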

In series [5] the test system is Amaranthus retoflexus (AMARE). Kind of series: Post-emergence herbicidal glasshouse test. It counts as in vivo. The following applies: post-emergence (sprayed after 8 days cultivation), evaluated after 13 days, 100=total damage to plant, 0=no damage to plant; for pest or weed control at 1000 g/ha: Amaranthus retroflexus, 312 h, read-out: POST Application AMARE, damage to plant; for POST Application AMARE, damage to plant: 1000 g/ha. The gist of the method:
as §1

Series [6] relates to Alopecurus myosuroides (ALOMY). Kind of series: Pre-emergence herbicidal glasshouse test. The settings on record: pre-emergence (sprayed after one day cultivation), evaluated after 13 days, 100=total damage to plant, 0=no damage to plant; for pest or weed control at 1000 g/ha: Alopecurus myosuroides, 312 h, read-out: PRE Application ALOMY, damage to plant; for PRE Application ALOMY, damage to plant: 1000 g/ha. Type of series: in vivo. In short, it runs like this:
as §1

The subject of series [7] is Solanum nigrum (SOLNI). The series is described as follows: Pre-emergence herbicidal glasshouse test. The settings on record: pre-emergence (sprayed after one day cultivation), evaluated after 13 days, 100=total damage to plant, 0=no damage to plant; for pest or weed control at 1000 g/ha: Solanum nigrum, 312 h, read-out: PRE Application SOLNI, damage to plant; for PRE Application SOLNI, damage to plant: 1000 g/ha. It counts as in vivo. In short, it runs like this:
as §1

Series [8] concerns Setaria faberi (SETFA). Kind of series: Pre-emergence herbicidal glasshouse test. It counts as in vivo. The settings on record: pre-emergence (sprayed after one day cultivation), evaluated after 13 days, 100=total damage to plant, 0=no damage to plant; for pest or weed control at 1000 g/ha: Setaria faberi, 312 h, read-out: PRE Application SETFA, damage to plant; for PRE Application SETFA, damage to plant: 1000 g/ha. The gist of the method: as §1

The subject of series [9] is Echinochloa crus-galli (ECHCG). The series is described as follows: Pre-emergence herbicidal glasshouse test. It counts as in vivo. The following applies: pre-emergence (sprayed after one day cultivation), evaluated after 13 days, 100=total damage to plant, 0=no damage to plant; for pest or weed control at 1000 g/ha: Echinochloa crus-galli, 312 h, read-out: PRE Application ECHCG, damage to plant; for PRE Application ECHCG, damage to plant: 1000 g/ha. The gist of the method: as §2

The subject of series [10] is Amaranthus retoflexus (AMARE). The series is described as follows: Pre-emergence herbicidal glasshouse test. The settings on record: pre-emergence (sprayed after one day cultivation), evaluated after 13 days, 100=total damage to plant, 0=no damage to plant; for pest or weed control at 1000 g/ha: Amaranthus retroflexus, 312 h, read-out: PRE Application AMARE, damage to plant; for PRE Application AMARE, damage to plant: 1000 g/ha. It counts as in vivo. The gist of the method: as §1

Regarding `O=C(c1cc2cc(F)c(O)nc2nc1C(F)(F)F)C1C(=O)C2CCC(C2)C1=O` (stereo not shown) [Compound 3.1], the pest or weed control at 1000 g/ha in [1] came to 60%; in the series on Solanum nigrum (SOLNI) [2], 80%; in the series on Setaria faberi (SETFA) [3] it was 80%; in series [4], 70%; in [5], 80%; in series [6], 60%. Also, the pest or weed control at 1000 g/ha in the series with Solanum nigrum (SOLNI) [7] came out at 100%; in the series on Setaria faberi (SETFA) [8] it was 90%; in series [9], 90%; in series [10], 100%.

In the case of `CCOc1nc2nc(C(F)(F)F)c(C(=O)C3C(=O)C4CCC(C4)C3=O)cc2cc1F` (stereo not shown) [Compound 3.4], the pest or weed control at 1000 g/ha turned out to be 70% in [1]; 90% in the series with Solanum nigrum (SOLNI) [2]; 90% in the series with Setaria faberi (SETFA) [3]; 80% in series [4]; 70% in series [5]; 70% in series [6]. The pest or weed control at 1000 g/ha (in the series with Solanum nigrum (SOLNI) [7]; with Setaria faberi (SETFA) [8]; in [9]; in series [10]) was 100% in each case.

Turning to `Cc1c(F)cnc2nc(C(F)(F)F)c(C(=O)C3C(=O)C4CCC(C4)C3=O)cc12` (stereo not shown) [Compound 3.5, 3-[6-Fluoro-5-methyl-2-trifluoromethyl-[1,8]-naphthyridine-3-carbony]-bicyclo[3.2.1]octane-2,4-dione], the pest or weed control at 1000 g/ha amounted to 0% in series [1]; 80% with Solanum nigrum (SOLNI) [2]; 70% in the series on Setaria faberi (SETFA) [3]; 70% in [4]; 50% in series [5]; 0% in [6]. In addition, the pest or weed control at 1000 g/ha amounted to 60% in the series with Solanum nigrum (SOLNI) [7], 30% in the series on Setaria faberi (SETFA) [8], 50% in [9] and 20% in series [10].

As for `O=C(c1cc2ccc(CCF)nc2nc1C(F)(F)F)C1C(=O)C2CCC(C2)C1=O` (stereo not shown) [Compound 3.10], in series [1], the “POST Application ALOMY, damage to plant” value is given as 80. The “POST Application SOLNI, damage to plant” value in the series on Solanum nigrum (SOLNI) [2] worked out at 90. Besides, the “POST Application SETFA, damage to plant” value in the series on Setaria faberi (SETFA) [3] was determined as 90. In [4], the “POST Application ECHCG, damage to plant” value worked out at 90. In addition, in series [5], the “POST Application AMARE, damage to plant” value was 100. Also, the “PRE Application ALOMY, damage to plant” value in [6] is on record as 70. In addition, the “PRE Application SOLNI, damage to plant” value in the series on Solanum nigrum (SOLNI) [7] was determined as 100. For the same molecule, the “PRE Application SETFA, damage to plant” value in the series on Setaria faberi (SETFA) [8] is on record as 90. The “PRE Application ECHCG, damage to plant” value in [9] is 100. The “PRE Application AMARE, damage to plant” value in series [10] came out at 70.

Regarding `CC(CF)c1ccc2cc(C(=O)C3C(=O)C4CCC(C4)C3=O)c(C(F)(F)F)nc2n1` (stereo not shown) [Compound 3.11], the “POST Application ALOMY, damage to plant” value in series [1] is given as 70. Moreover, in the series on Solanum nigrum (SOLNI) [2], the “POST Application SOLNI, damage to plant” value was 90. Further, in the series on Setaria faberi (SETFA) [3], the “POST Application SETFA, damage to plant” value turned out to be 90. For the same molecule, in series [4], the “POST Application ECHCG, damage to plant” value came to 80. Moreover, in series [5], the “POST Application AMARE, damage to plant” value was determined as 100. Also, the “PRE Application ALOMY, damage to plant” value in series [6] is given as 70. The “PRE Application SOLNI, damage to plant” value in the series on Solanum nigrum (SOLNI) [7] is on record as 100. In the series on Setaria faberi (SETFA) [8], the “PRE Application SETFA, damage to plant” value is recorded as 90. Besides, the “PRE Application ECHCG, damage to plant” value in series [9] turned out to be 100. Also, the “PRE Application AMARE, damage to plant” value in series [10] came out at 100.

Take `COCC(F)(F)c1nc2nc(C)c(F)cc2cc1C(=O)C1C(=O)C2CCC(C2)C1=O` (stereo not shown) [Compound 3.13, 3-[6-fluoro-2-(2-methoxy-1,1-difluoroethyl)-7-methyl [1,8]-naphthyridine-3-carbonyl]-bicyclo[3.2.1]octane-2,4-dione]: the melting point is 177 to 180 °C. Further, the pest or weed control at 1000 g/ha in series [1] was 40%. Besides, the pest or weed control at 1000 g/ha in the series with Solanum nigrum (SOLNI) [2] turned out to be 70%. Further, the pest or weed control at 1000 g/ha in the series on Setaria faberi (SETFA) [3] amounted to 80%. In addition, the pest or weed control at 1000 g/ha in [4] worked out at 80%. Also, the pest or weed control at 1000 g/ha in series [5] is 70%. In series [6], the pest or weed control at 1000 g/ha was 10%. Further, the pest or weed control at 1000 g/ha in the series with Solanum nigrum (SOLNI) [7] is 80%. Besides, the pest or weed control at 1000 g/ha in the series with Setaria faberi (SETFA) [8] was 80%. Besides, in series [9], the pest or weed control at 1000 g/ha is 100%.

Consider `CCOc1ccc2cc(C(=O)C3=C(OC(=O)C(C)C)CCCC3=O)c(C(F)(F)F)nc2n1` [Compound 4.19, isobutyric acid 2-(7-ethoxy-2-trifluoromethyl-[1,8]-naphthyridine-3-carbonyl)-3-oxo-cyclohex-1-enyl ester], for which the pest or weed control at 1000 g/ha in [1] was determined as 80%; in the series on Solanum nigrum (SOLNI) [2], 90%; in the series on Setaria faberi (SETFA) [3], 90%; in series [4], 80%; in series [5], 70%; in [6] it was 70%. Besides, the pest or weed control at 1000 g/ha (in the series on Solanum nigrum (SOLNI) [7]; in the series on Setaria faberi (SETFA) [8]; in series [9]; in series [10]) was 100% each time.

In the case of `Cc1nc2nc(C(F)(F)F)c(C(=O)C3=C(OC(=O)C(C)C)CCCC3=O)cc2cc1F` [Compound 4.21, Isobutyric acid 2-(6-fluoro-7-methyl-2-trifluoromethyl-[1,8]-naphthyridine-3-carbonyl)-3-oxo-cyclohex-1-enyl ester], the pest or weed control at 1000 g/ha in series [1] came out at 80%; with Solanum nigrum (SOLNI) [2] it was 80%; in the series with Setaria faberi (SETFA) [3], 80%; in [4] it was 80%; in [5], 90%; in series [6], 80%. Also, the pest or weed control at 1000 g/ha (with Solanum nigrum (SOLNI) [7]; in the series with Setaria faberi (SETFA) [8]; in series [9]; in series [10]) was 100% throughout.

Turning to `CCCCCCCC(=O)OC1=C(C(=O)c2cc3cc(F)c(C)nc3nc2C(F)(F)F)C(=O)CCC1` [Compound 4.22, n-Octanoic acid 2-(6-fluoro-7-methyl-2-trifluoromethyl-[1,8]-naphthyridine-3-carbonyl)-3-oxo-cyclohex-1-enyl ester], the pest or weed control at 1000 g/ha amounted to 70% in series [1]; 90% in the series on Solanum nigrum (SOLNI) [2]; 80% in the series with Setaria faberi (SETFA) [3]; 90% in series [4]; 90% in series [5]; 60% in series [6]. In addition, the pest or weed control at 1000 g/ha (with Solanum nigrum (SOLNI) [7]; in the series with Setaria faberi (SETFA) [8]; in series [9]; in series [10]) was 100% each time.

Turning to `Cc1nc2nc(C(F)(F)F)c(C(=O)C3C(=O)C(C)(C)OC(C)(C)C3=O)cc2cc1F` [Compound 5.2], the pest or weed control at 1000 g/ha in series [1] was determined as 70%; in the series on Solanum nigrum (SOLNI) [2] it was 70%; with Setaria faberi (SETFA) [3], 80%; in series [4] it was 80%; in [5] it was 90%; in series [6], 90%. In addition, the pest or weed control at 1000 g/ha (in the series with Solanum nigrum (SOLNI) [7]; in the series with Setaria faberi (SETFA) [8]; in series [9]; in series [10]) was 100% throughout.

Values taken from patent US8461083B2, “Herbicidal compounds” (Syngenta Limited, priority 2008, dated 2013).
